Measurements from patent publication US9902713B2, “Neuroprotective compounds and use thereof” (BOARD OF REGENTS OF THE UNIVERSITY OF TEXAS SYSTEM, priority 2013, dated 2018).
Entries after “also recorded” stand apart in the source; their conditions may differ.

Assays:
[1] = test system: newborn hippocampal neurons; assay: In vivo neuroprotection assay: BrdU+ newborn hippocampal neurons; parameters: species or system mice
Protocol: Results. Our most robust assay involves monitoring neuroprotection of newborn hippocampal neurons in mice because this assay gives a simultaneous readout of efficacy, acute toxicity and cell permeability. For this reason, all analogs of P7C3 were evaluated initially by infusing them directly into the left lateral ventricle of environmentally-deprived^ix live mice using a subcutaneously implanted osmotic minipump. Compounds were delivered intracerebroventricularly (ICV) over a 7 day period at a concentration of 10 μM (12 μL/d).^x Coincident with ICV administration of drug, mice were dosed daily with the thymidine analog bromodeoxyuridine (BrdU, IP, 50 mg/kg) to mark newly born hippocampal neural precursor cells. At the end of the 1 week dosing, animals were sacrificed and transcardially perfused. Brain slices were stained with antibodies to BrdU, and the number of surviving neural precursor cells was quantified by counting the number of BrdU+ cells in the hippocampal dentate gyrus. To avoid complications arising from the surgical implantation of the pump, we quantified neurogenesis in the hemisphere opposite to compound infusion. Finally, to obtain consistent data across many animals, the number of BrdU+ cells was normalized to the volume of the dentate gyrus.
In Vivo Neuroprotection Assay. Test compounds were evaluated as described previously.^2 Compounds were infused intracerebroventricularly (i.c.v.) into the left lateral ventricle of four adult (12 week old) wild-type C57BL/J6 mice by means of surgically implanted Alzet osmotic minipumps that delivered solution into animals at a constant rate of 0.5 μl/hour for 7 days. Alternatively, compounds were administered intraperitoneally twice daily. Bromodeoxyuridine (BrdU) was injected intraperitoneally at 50 mg/kg/day for six days during pump infusion. Twenty-four hours after the final BrdU administration, mice were sacrificed by transcardial perfusion with 4% paraformaldehyde at pH 7.4, and their brains were processed for immunohistochemical detection of incorporated BrdU in the SGZ. Dissected brains were immersed in 4% paraformaldehyde overnight at 4° C., then cryoprotected in sucrose before being sectioned into 40 μm thick free-floating sections. Unmasking of BrdU antigen was achieved through incubating tissue sections for two hours in 50% formamide/2×SSC at 65° C., followed by a five minute wash in 2×SSC and subsequent incubation for thirty minutes in 2M HCl at 37° C. Sections were processed for immunohistochemical staining with mouse monoclonal anti-BrdU (1:100). The number of BrdU+ cells in the entire dentate gyrus SGZ in the contralateral hemisphere (opposite side of surgically implanted pump) was quantified by counting BrdU+ cells within the SGZ and dentate gyrus in every fifth section throughout the entire hippocampus and then normalizing for dentate gyrus volume.

[2] = Protein binding; assay type: in vitro ADME
[3] = test system: cultured cortical neurons; assay: 6-OHDA toxicity in cultured neurons (MTT); assay type: cell-based; conditions: 10 μM compound
Protocol: (§1) A rat model of Parkinson's disease, incuded by 6-hydroxydopamine (6-OHDA) was used to test various compounds As shown in FIGS. 33A-33D, P7C3-S243 protects cultured hippocampal and cortical neurons from 6-OHDA toxicity. […] (FIG. 33B) The average number of hippocampal neurons in the 10 μM P7C3-S243 treatment group was not different from the average number of hippocampal neurons treated with medium alone or with DMSO+Ascorbic acid (one-way ANOVA). […] The average number of cortical neurons in the 10 μM P7C3-S243 treatment group was not different from the average number of cortical neurons treated with medium alone or with DMSO+Ascorbic acid (one-way ANOVA). Experiments were performed two independent times, with 8-12 replicates of each sample both times.

[4] = test system: cultured hippocampal neurons; assay: 6-OHDA toxicity in cultured neurons (MTT); assay type: cell-based; conditions: 10 μM compound
Protocol: as §1

[5] = test system: cultured hippocampal neurons; assay: MPP+ toxicity in cultured neurons (MTT); assay type: cell-based; conditions: 10 μM compound, 10 μM MPP+, 24 hrs
Protocol: FIGS. 35A-35B show P7C3-S243 and P7C3-A20 protect cultured hippocampal and cortical neurons from MPP^+ toxicity. […] Experiments were performed 2 independent times with 8-12 replicates of each sample both times.

[6] = test system: 6-OHDA-exposed rats; assay: 6-OHDA rat model of Parkinson's disease; assay type: in vivo
Protocol: (FIG. 34A) Schematic of the experimental design illustrates that rats received a unilateral stereotactic injection of 6-OHDA or saline in the medial forebrain bundle (MFB), followed by daily injection of P7C3-S243 for 7 days. Open field and cylinder tests were performed 8-10 days after 6-OHDA injection, and the amphetamine circling test was conducted on day 11. Rats were transcardially perfused on day 14, and brain tissue was processed for neurochemistry and immunohistochemistry analysis. […] Scale bars=250 μm. […] No difference was found in the concentration of serotonin in all groups (one-way ANOVA). For all experiments in FIG. 34, n=10 per group except for the HPLC analysis, for which n=7.
FIGS. 36A-36F show pretreatment with P7C3-A20 or P7C3-S243 (10 mg/kg/day) protects rats from 6-OHDA toxicity. (FIG. 36A) Schematic of the experimental design illustrates that rats were pretreated for 3 days with either P7C3-A20 or P7C3-S243, and then administered either 6-OHDA or saline by stereotactic injection in the medial forebrain bundle (MFB), followed by 7 more days of treatment with either P7C3-A20 or P7C3-S243. Open field and cylinder tests were performed between days 8-10, and the amphetamine circling test was performed on day 11. Rats were transcardially perfused on day 14, and brain tissue was processed for neurochemistry and immunohistochemistry analysis. […] Scale bars=250 μm.
FIGS. 37A-37B show treatment of 6-OHDA-exposed rats with P7C3-S243 preserves both TH and NeuN staining, illustrating that TH staining corresponds to neuronal survival. […] DAPI was used as a nuclear marker.

[7] = Long-term treatment: weight, behavior, appearance
[8] = test system: degenerating axons; assay: Silver staining of degenerating axons after blast-mediated TBI
Protocol: Optical densitometry of silver-stained tissue was used to quantify the magnitude of staining, such that greater impedance of light through the section reflected greater axonal degeneration (FIG. 18B).
All brains were stored in a freezer at −80° C. before sectioning. […] Every 1st-12th sections of each series of 12 sections (interval: 480 μm) were collected separately. All sections were stored free-floating in FD sections storage solution (FD Neurotechnologies, Columbia, Md.) at −20° C. before further processing.
For silver staining, sections were collected in 0.1 M phosphate buffer (pH 7.4) containing 4% paraformaldehyde and fixed for 5 days at 4° C. Sections were then processed for the detection of neurodegeneration with FD NeuroSilver Kit II (FD Neurotechnologies) according to the manufacturer's instructions (for detailed procedures, cf. the manual of PK301, available at www.fdneurotech.com). Subsequently, all sections were mounted on slides, dehydrated in ethanol, cleared in xylene, and coverslipped with Permount (Fisher Scientific, Fair Lawn, N.J.).
The microscope light intensity and camera exposure were held constant. The operator outlined areas of interest around specific brain regions and recorded the intensity of light passing through the slide. Degenerating axons allowed less light to pass through the section due to their uptake of silver stain, so lower light intensity correlated with increased degeneration. Operator performing quantification was blinded to condition and treatment.

[9] = target: 2C8 (Homo sapiens, UniProt P10632); assay: Cytochrome P450 inhibition; assay type: in vitro ADME
2C8, sequence (P10632 whole entry): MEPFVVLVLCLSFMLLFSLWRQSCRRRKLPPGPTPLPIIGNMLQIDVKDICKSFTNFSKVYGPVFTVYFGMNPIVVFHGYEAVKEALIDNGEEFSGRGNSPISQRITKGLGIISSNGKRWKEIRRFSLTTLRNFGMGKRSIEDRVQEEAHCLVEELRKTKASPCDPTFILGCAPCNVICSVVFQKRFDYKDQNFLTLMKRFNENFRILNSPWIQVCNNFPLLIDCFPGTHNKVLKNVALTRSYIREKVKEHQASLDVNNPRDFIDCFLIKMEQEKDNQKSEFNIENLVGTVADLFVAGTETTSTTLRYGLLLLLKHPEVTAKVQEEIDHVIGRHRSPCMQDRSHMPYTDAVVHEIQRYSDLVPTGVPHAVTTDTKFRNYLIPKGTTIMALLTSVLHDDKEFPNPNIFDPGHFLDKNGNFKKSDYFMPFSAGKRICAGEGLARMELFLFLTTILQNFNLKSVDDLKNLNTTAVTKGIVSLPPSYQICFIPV

[10] = test system: intracellular levels of NAD; assay: Intracellular NAD levels by mass spectrometry; assay type: cell-based; conditions: 3 uM, 12 hrs
From the text: Cultured cells were exposed to varying levels of “A20” (X-axis) for 12 hrs. Intracellular levels of NAD (Y-axis) were monitored by mass spectrometry.

[11] = test system: newborn hippocampal neurons; conditions: previously reported; cited from earlier work
[12] = test system: dopaminergic neurons within the substantia nigra; conditions: previously reported; cited from earlier work
[13] = 10 mg/kg/day, 7 days after 6-OHDA
[14] = 10 mg/kg/day, pretreated 3 days plus 7 more days
[15] = single enantiomers, 3 mg/kg/day

COc1cccc(NCC(F)Cn2c3ccc(Br)cc3c3cc(Br)ccc32)n1 (racemic) [P7C3-S243, N-(3-(3,6-dibromo-9H-carbazol-9-yl)-2-fluoropropyl)-6-methoxypyridin-2-amine]
activity relative to P7C3 and P7C3-A20 ([1]; ICV, 1 week, FIG. 1): superior to P7C3 and comparable to P7C3-A20
number of surviving newborn hippocampal neurons ([1]; ICV, 1 week, FIG. 1): approximately doubled
dose at ceiling of efficacy ([1]; administered intraperitoneally): 10 mg/kg/day
dose at which active ([1]; administered intraperitoneally): 1 mg/kg/day
protein binding [2]: high
average number of neurons vs medium or DMSO+Ascorbic acid [3]: not different
protection (MTT) ([3]; 50 μM and 75 μM 6-OHDA): significant protection
average number of neurons vs medium or DMSO+Ascorbic acid [4]: not different
protection (MTT) ([4]; 50 μM 6-OHDA, 24 hrs): significant protection
protection (MTT) [5]: significant protection
TH and NeuN immunofluorescence of the SNc ([6]; 10 mg/kg/day for 7 days): preservation of co-localized tyrosine hydroxylase (TH) and NeuN
TH-positive cells compared to 6-OHDA-Vehicle group [6, 13]: significant increase
ipsilateral rotations (amphetamine-circling) of 6-OHDA+vehicle animals compared to 6-OHDA+compound animals [6, 13]: significant increase
total distance traveled (open field) of 6-OHDA+vehicle animals compared to 6-OHDA+compound animals [6, 13]: significant decrease
total rearings (cylinder test) of 6-OHDA+vehicle animals compared to 6-OHDA+compound animals [6, 13]: significant decrease
striatal concentration of dopamine, DOPAC, and homovanillic acid compared to 6-OHDA-Vehicle group ([6]; 10 mg/kg/day, 7 days after 6-OHDA, HPLC): significant increase
TH-positive cells compared to 6-OHDA-Vehicle group [6, 14]: significant increase
ipsilateral rotations (amphetamine-circling) of 6-OHDA+vehicle animals compared to 6-OHDA+compound animals [6, 14]: significant increase
total distance traveled (open field) of 6-OHDA+vehicle animals compared to 6-OHDA+compound animals [6, 14]: significant decrease
total rearings (cylinder test) of 6-OHDA+vehicle animals compared to 6-OHDA+compound animals [6, 14]: significant decrease
impact on weight, behavior or appearance ([7]; up to 10 mg/kg/d for 21 d): no negative impact
axonal degeneration, cerebellar molecular layer ([8]; 0.3 mg/kg/day): Extensive axonal degeneration
silver staining in CA1, corpus callosum, thalamus, cortex, olfactory bulb, striatum, dentate gyrus, cerebellum ([8]; 0.3 mg/kg/day): prominent silver staining of degenerating axons
axonal degeneration, cerebellar molecular layer ([8]; 3 and 30 mg/kg/day): blocked
axonal degeneration, CA1 stratum radiatum ([8]; 3 and 30 mg/kg/day from 24 hours after injury): blocked
axonal and cellular degeneration, thalamus, cortex, CA1 ([8]; 14 days after injury, treatment from 24 hours, FIG. 7): ameliorated

COc1cccc(NCC(F)Cn2c3ccc(Br)cc3c3cc(Br)ccc32)n1 (single isomer, unassigned; (-)) [(−)-P7C3-S243, (−)-N-(3-(3,6-dibromo-9H-carbazol-9-yl)-2-fluoropropyl)-6-methoxypyridin-2-amine]
neuroprotective activity of pure enantiomers ([1]; ICV 0.5 μL/h, 7 days, FIG. 2): highly active; also recorded: high activity
sensitivity of cytochrome P450 [9]: insensitive
axonal degeneration, CA1 stratum radiatum [8, 15]: complete protection from axonal degeneration
axonal degeneration, cerebellar molecular layer [8, 15]: blocked
silver staining in CA1, corpus callosum, thalamus, cortex, olfactory bulb, striatum, dentate gyrus, cerebellum [8, 15]: protected from axonal degeneration

COc1cccc(NCC(F)Cn2c3ccc(Br)cc3c3cc(Br)ccc32)c1 (stereo not shown) [P7C3-A20, N-(3-(3,6-dibromo-9H-carbazol-9-yl)-2-fluoropropyl)-3-methoxyaniline]
protection (MTT) [5]: significant protection
TH-positive cells compared to 6-OHDA-Vehicle group [6, 14]: significant increase
ipsilateral rotations (amphetamine-circling) of 6-OHDA+vehicle animals compared to 6-OHDA+compound animals [6, 14]: significant increase
total distance traveled (open field) of 6-OHDA+vehicle animals compared to 6-OHDA+compound animals [6, 14]: significant decrease
total rearings (cylinder test) of 6-OHDA+vehicle animals compared to 6-OHDA+compound animals [6, 14]: significant decrease
maximal enhancement of NAD [10]: 20-30%
activity in the in vivo hippocampal neuroprotection assay (previous studies) [11]: substantially improved activity
protection of substantia nigra neurons from MPTP (earlier report) [12]: protect neurons in the substantia nigra
impact on weight, behavior or appearance ([7]; up to 40 mg/kg/d for 21 d): no negative impact
